How the values were obtained:
[1] = system: enzyme for ganglioside GM3 synthesis, mouse B16 melanoma cell; assay: Activity of enzyme for ganglioside GM3 synthesis (14C-Gal incorporated in total lipid fraction); format: cell-based; conditions: relative value, control regarded as 100; test compound 24 μM, 24 hours; 14C-Gal incorporation
Description: The gangliosides produced by mouse B16 melanoma cell are almost composed of ganglioside GM3. Therefore, the activity of the enzyme for ganglioside GM3 synthesis can be determined conveniently by measuring the amount of ^14C-Gal incorporated in a total lipid-extracted fraction through a liquid layer partition method.
A liquid where the cells of mouse B16 melanoma were suspended was prepared with Dulbecco modified Eagle's medium containing 10% bovine fetal serum, inoculated into a 12-well plate in an amount of 2.0×10^5 cells/ml/well, and cultured in 5% CO2 incubator at 37° C. The treatment with a test compound (24 μM) and the addition of ^14C-Gal (22.2 kBq/11.7 nmol/6 μl/well) were started through the exchange of total amount of the medium 24 hours after the culture was started. Twenty-four hours after the treatment with the test compound was started, the culture mixture was treated with PBS containing 0.02% EDTA and PBS containing 0.25% trypsin successively to recover the cells.
Then, a mixed solvent of chloroform:methanol=2:1 (3 ml) was added to the cell pellet and, after the subjection to an ultrasonication for 30 minutes, the supernatant was recovered. Furthermore, a mixed solvent of chloroform:methanol=1:1 (3 ml) was added to the residual pellet after the recovery of the supernatant, and a similar operation was carried out. The resulting supernatant was combined with the first supernatant and the whole was evaporated to dryness under a nitrogen stream. A desalinated water (1.0 ml) was added to the total lipid-extracted fraction. After having been subjected to an ultrasonication for 1 minute, the mixture was transferred into a dialysis tube and dialyzed against water for 2 days. The sample after the dialysis was transferred into a vial for liquid scintillation counter and, after the addition of scintillator, the activity of incorporating ^14C-Gal was measured on scintillation counter.
The values of activity of the compounds of the present invention are shown as relative values obtained by calculation on the basis that the value of a control (a group where no test compound was added) is regarded as 100 in Table 3 below.

[2] = system: cultured neurocytes of rat fetal cerebral cortex; assay: Activity of accelerating synapse formation (intracellular calcium ion level, fura-2); format: cell-based; conditions: relative value, L-PDMP regarded as 100; compound 20 μM; assay on 10th day of culture
Description: The activity of accelerating synapse formation was determined by measuring change of an intracellular calcium ion level resulted from the synchronized spontaneous ignition of neurocytes which is considered to show synapse activities by means of an intracellular calcium ion multipoint observation system using a calcium ion fluorescence indicator, fura-2.
Concretely, rat fetuses at the 18th day of pregnancy were taken out from Wistar rats (available from Japan SLC), and cerebral cortices of the fetuses were taken out and cut into small pieces. After having been treated with papain (manufactured by Worthington Biochemical) at 37° C. for 30 minutes, the pieces were suspended into a Dulbecco modified Eagle's medium containing 5% bovine neonatal serum and 5% equine serum and the cortices were dissociated into single cells with Cell Striner (70 μm, Falcon). Then, the cells were inoculated into a flexiperm plate coated with 0.5% polyethyleneimine (1.0×10^6 cells/500 μl/well), and was cultured in 7% CO2 incubator at 37° C. The medium was exchanged on 2nd, 5th, and 8th days after the culture had been started. The activity of the compound of the present invention was measured using the primary culture. The compound was added at the time when the medium was exchanged and the concentration of the compound was maintained to be 20 μM. Assay was carried out on 10th day after the culture had been started.
(2) Measurement of Activity of Accelerating Synapse Formation
Concretely, after the medium of each well where cells were cultured was substituted with basic salt solution (BSS), 3 μl of a DMSO solution (1 mg/ml) of a calcium ion fluorescence indicator fura-2 was added, and the whole was kept at 37° C. for 1 hour.

[3] = Tissue distribution: concentration in plasma and skeletal muscle after oral or intravenous administration; format: in vivo; conditions: rat
Description: Tissue distribution of the compound in Example 19 was compared with that of L-PDMP using 6-8 week old Wistar male rats.
As oral administration, a physiological saline containing 20 mg/ml of a test substance was administered at 100 mg/5 ml/kg, and as intravenous administration, a physiological saline containing 1.25 mg/ml of a test substance was administered to the cervical vein at 5 mg/4 ml/kg.
After the predetermined time had passed since the above administration, blood was collected from the rat cervical vein, a 3.8% sodium citrate solution was added thereto at 1/10 volume, followed by centrifugation at 3,000 rpm for 15 minutes to obtain the supernatant as a plasma sample.
Also, after the predetermined time had passed since the above administration, the skeletal muscle was collected from the femoral region of both hind legs, ice water was added thereto at 4 ml/g tissue, followed by homogenization, and the same volume of acetonitrile was added thereto, followed by vigorously stirring and centrifugation at 4000 rpm for 10 minutes to obtain the supernatant as a skeletal muscle sample.
The plasma and skeletal muscle samples were extracted by OASIS HLB solid phase extraction column (manufactured by Waters), and the concentration of the test compound in the plasma and the muscle was determined by high performance liquid chromatography (HPLC). The conditions of HPLC analysis were as follows:
Detection wavelength: 218 nm
Column: DAISO PACK SP-120-5-ODS-BP
Column temperature: 40° C.
Mobile phase: 0.1% trifluoroacetic acid solution:methanol=36:64 (for L-PDMP); 0.1% trifluoroacetic acid solution:methanol=48:52 (for the compound in Example 19)
The concentrations in the plasma and skeletal muscle of the compound in Example 19 and L-PDMP after the predetermined time has been passed since the administration of the test compounds are shown in Tables 4-6 below. The values are the mean values of at least two test samples. Specifically, Table 4, Table 5, and Table 6 show the concentrations in the plasma after the oral administration of 100 mg/kg, the concentrations in the skeletal muscle after the oral administration of 100 mg/kg, and the concentrations in the plasma after the intravenous administration of 5 mg/kg, respectively.

Molecule | Activity of synapse formation [2] | other results
O=C(CNC(=O)OCc1ccccc1)N[C@@H](CN1CCOCC1)[C@@H](O)c1ccccc1 [Example 1] |  | Activity of accelerating glycolipid biosynthesis (Test Example 2) [1]: 85.2
O=C(CNC(=O)OCc1ccccc1)NCC(=O)N[C@@H](CN1CCOCC1)[C@@H](O)c1ccccc1 [Example 2] |  | Activity of accelerating glycolipid biosynthesis (Test Example 2) [1]: 130.9
CCCCOC(=O)NCC(=O)N[C@@H](CN1CCOCC1)[C@@H](O)c1ccccc1 [Example 3] |  | Activity of accelerating glycolipid biosynthesis (Test Example 2) [1]: 98.6
CCCCCC(=O)NCC(=O)N[C@@H](CN1CCOCC1)[C@@H](O)c1ccccc1 [Example 4, (1S,2S)-2-(n-hexanoyl)glycylamino-3-morpholino-1-phenyl-1-propanol] |  | Activity of accelerating glycolipid biosynthesis (Test Example 2) [1]: 71.3
CCOC(=O)CCCCC(=O)N[C@@H](CN1CCOCC1)[C@@H](O)c1ccccc1 [Example 6, (1S,2S)-2-ethoxyhexanedioylamino-3-morpholino-1-phenyl-1-propanol] | 87.5 | 
CCCCN(C)C(=O)CCC(=O)N[C@@H](CN1CCOCC1)[C@@H](O)c1ccccc1 [Example 10, (1S,2S)-2-(N-butyl-N-methylamino)butanedioylamino-3-morpholino-1-phenyl-1-propanol] | 91.7 | 
CCNC(=O)CCCCC(=O)N[C@@H](CN1CCOCC1)[C@@H](O)c1ccccc1 [Example 11, (1S,2S)-2-(5-ethylcarbamoyl)pentanoylamino-3-morpholino-1-phenyl-1-propanol] | 93.3 | 
CCCCNC(=O)CCCCCCCCC(=O)N[C@@H](CN1CCOCC1)[C@@H](O)c1ccccc1 [Example 14, (1S,2S)-2-(9-butylcarbamoyl)nonanoylamino-3-morpholino-1-phenyl-1-propanol] | 94.2 | 
CCCCCCNC(=O)CCCCCCCCC(=O)N[C@@H](CN1CCOCC1)[C@@H](O)c1ccccc1 [Example 15, (1S,2S)-2-(9-hexylcarbamoyl)nonanoylamino-3-morpholino-1-phenyl-1-propanol] | 90.0 | 
CCCCCCNC(=O)C1CCC(C(=O)N[C@@H](CN2CCOCC2)[C@@H](O)c2ccccc2)CC1 (stereo partly drawn) [Example 17, (1S,2S)-2-(cyclohexane-4-hexylcarbamoyl-1-carbonyl)amino-3-morpholino-1-phenyl-1-propanol] | 90.0 | 
CCCCOCCOCC(=O)N[C@@H](CN1CCOCC1)[C@@H](O)c1ccccc1 [Example 19, (1S,2S)-2-(3,6-dioxadecanoyl)amino-3-morpholino-1-phenyl-1-propanol] | 90.8 | concentration at 10 min ([3]; male, Wistar, plasma, intravenous administration of 5 mg/kg, 10 min): 2240 ng/mL; concentration at 25 min ([3]; male, Wistar, plasma, intravenous administration of 5 mg/kg, 25 min): 560 ng/mL; concentration at 5 min ([3]; male, Wistar, plasma, oral administration of 100 mg/kg, 5 min): 2620 ng/mL; concentration at 15 min ([3]; male, Wistar, plasma, oral administration of 100 mg/kg, 15 min): 8660 ng/mL; concentration at 30 min ([3]; male, Wistar, plasma, oral administration of 100 mg/kg, 30 min): 6140 ng/mL; concentration at 60 min ([3]; male, Wistar, plasma, oral administration of 100 mg/kg, 60 min): 950 ng/mL; retention in plasma and skeletal muscle compared with L-PDMP ([3]; in words): kept in the plasma and skeletal muscle for a longer time; tissue distribution compared with L-PDMP ([3]; in words): higher tissue distribution than L-PDMP
CCCCCCOCCOCC(=O)N[C@@H](CN1CCOCC1)[C@@H](O)c1ccccc1 [Example 21, (1S,2S)-2-(3,6-dioxadodecanoyl)amino-3-morpholino-1-phenyl-1-propanol] | 97.5 | 
CC(=O)CCCCCC(=O)N[C@@H](CN1CCOCC1)[C@@H](O)c1ccccc1 [Example 22, (1S,2S)-2-(7-oxooctanoyl)amino-3-morpholino-1-phenyl-1-propanol] | 88.3 | 
O=C(CCCCCCCCCO)N[C@@H](CN1CCOCC1)[C@@H](O)c1ccccc1 [Example 23, (1S,2S) -2-(10-hydroxydecanoyl) amino-3-morpholino-1-phenyl-1-propanol] | 85.8 | 
N[C@@H](CCCCNC(=O)CCCCC(=O)N[C@@H](CN1CCOCC1)[C@@H](O)c1ccccc1)C(=O)O [Example 26, (1S,2S,12S)-2-(12-amino-7-aza-6-oxo-12-carboxydodecanoyl)amino-3-morpholino-1-phenyl-1-propanol] | 95.0 | 
N[C@@H](CCCCNC(=O)CCCCCCCCC(=O)N[C@@H](CN1CCOCC1)[C@@H](O)c1ccccc1)C(=O)O [Example 27, (1S,2S,16S)-2-(16-amino-11-aza-10-oxo-16-carboxyhexadecanoyl)amino-3-morpholino-1-phenyl-1-propanol] | 100.0 | 
CC(=O)NC1C(O)CC(CCCCCCCCC(=O)N[C@@H](CN2CCOCC2)[C@@H](O)c2ccccc2)(C(=O)O)OC1C(O)C(O)CO (stereo partly drawn) [Example 28, (1S,2S)-2-(9-sialylnonanoyl)amino-3-morpholino-1-phenyl-1-propanol] | 95.8 | 
(1S,2S)-2-(5-cyclohexylcarbamoyl)pentanoylamino-3-morpholino-1-phenyl-1-propanol [Example 12] | 80.0 | 
(1S,2S)-2-(5-hexylcarbamoyl)pentanoylamino-3-morpholino-1-phenyl-1-propanol [Example 13] | 95.0 | 
